{"source": "patent US20260325504A1", "about": "“Genetically Engineered Human Pituitary Corticotroph Tumor Organoids Exhibit Divergent Responses to Selective Glucocorticoid Receptor Modulators” (Corcept Therapeutics Incorporated, priority 2022, published 2026)", "format_in_all_cases": "cell-based, human", "key": {"SSTR5": {"test_system": "SSTR5", "experiment": "Differential expression of SSTR5 (qRT-PCR) in iPSC generated pituitary organoids", "conditions": "for expression of SSTR5: 500 nM, vs vehicle; for SSTR5 induction relative to SSTR2: PitNET organoids, summary", "description": "(§1) Sonic Hedgehog (SHH) was withdrawn from the organoid growth media 16 hours prior to treatment. The experimental treatment groups included: vehicle (Veh), mifepristone (500 nM, Selleckchem S2606), GANT61 (5 μM, Stemcell Technologies 73692), ketoconazole (Keto, 10 μM, Selleckchem S1353), pasireotide (Pas, 100 nM, Target Mol TP2207-SB001), octreotide (Oct, 100 nM, Selleckchem P1017), mifepristone plus GANT61, mifepristone plus Keto, mifepristone plus Pas, relacorilant (500 nM, Corcept Therapeutics CORT125134), relacorilant plus Pas, relacorilant plus Oct, or dexamethasone (Dexa, 100 nM, SIGMA S4902). In the combination treatments, cultures were pretreated with the GANT61, Keto, Pas or Oct for 2 hours prior to treatment with mifepristone or Rela. PitNET tissue derived organoids hPITO36, hPITO37, hPITO38, hPITO39, and hPITO40 were treated with the following experimental conditions: Vehicle (1), pasireotide (2), relacorilant (3), relacorilant & pasireotide (4), mifepristone (5), mifepristone & pasireotide (6). The IC50 values used for each hPITO line for each drug were determined based on dose responses (FIG. 12). All organoid cultures were treated for 48 hours prior to analysis.\nRNA was extracted from PitNET tissue or iPSC generated organoids using TRI Reagent® (Molecular Research Center Inc TR118) and the High Capacity cDNA Reverse Transcription Kit (Applied Biosystems, Foster City, CA) was used for cDNA synthesis of RNA following the recommended protocol. For each sample, 60 ng RNA was reverse transcribed to yield approximately […] total cDNA that was then used for the qRT-PCR. Pre-designed real-time polymerase chain reaction assays were purchased for the following genes: TPit (Thermo Fisher Scientific 4331182 Hs00193027), SF1 (Thermo Fisher Scientific 4331182 Hs00610436), SSTR2 (Thermo Fisher Scientific 4331182 Hs00265624_s1), SSTR5 (Thermo Fisher Scientific 4331182 Hs00990407_s1), POMC (Thermo Fisher Scientific 4331182 Hs01596743_ml), hPRT (Thermo Fisher Scientific 4331182 Hs02800695_ml), and FKBP5 (Thermo Fisher Scientific 4331182 Hs01561006_m1). Polymerase chain reaction amplifications were performed in a total volume of 20 μL containing 20× TaqMan Expression Assay primers, 2× TaqMan Universal Master Mix (Applied Biosystems, TaqMan® Gene Expression Systems), and cDNA template. Each polymerase chain reaction amplification was performed in triplicate wells in a StepOne Real-Time PCR System (Applied Biosystems) by using the following conditions: 500C 2 minutes, 95° C. 10 minutes, 95° C. 15 seconds (denature) and 60° C. 1 minute (anneal/extend) for 40 cycles. Fold change was calculated as the following: (Ct-Ct high)=n target, 2ntarget/2nHPRT=fold change where Ct=threshold cycle. The results were expressed as average fold change in or differential gene expression relative to control, with HPRT used as an internal control according to Livak and Schmittgen."}, "SSTR2": {"test_system": "SSTR2", "experiment": "Spectral flow cytometry, SSTR2 positive cells, iPSCUSP48MV organoids", "conditions": "48 h, FIGS. 8A, E", "description": "as §1\nThe multicolor flow cytometry antibody panel was designed using the Cytek® Full Spectrum Viewer online tool to calculate the similarity index. Organoids were harvested in cold Serum-Free Defined Medium media and incubated with Zombie (BioLegend 423107, 1:100) for 15 minutes in the dark at room temperature, followed by incubation with fluorochrome-conjugated/unconjugated primary surface or cytoplasmic antibodies (Table 6) at 4° C. for 30 minutes. Cells were then washed with Cell Staining Buffer (BioLegend 420-201) and incubated at 4° C. for 30 minutes with secondary antibodies (Table 6). Cells were fixed using Cytofix/Cytoperm™ Fixation/Permeabilization Solution (BD Biosciences 554714) and washed with Fixation/Permeabilization wash buffer according to the recommended protocol. […] Data was acquired using the Cytek® Aurora, analyzed using Cytobank Premium software (Beckman Coulter)."}, "iPSC^USP48MV organoids": {"test_system": "iPSC^USP48MV organoids", "experiment": "Spectral flow cytometry, Zombie positive cells (cell death), iPSCUSP48MV organoids", "conditions": "48 h, FIGS. 8D", "description": "as §1, with “All organoid cultures were treated for 48 hours prior to analysis.” left out\nThe multicolor flow cytometry antibody panel was designed using the Cytek® Full Spectrum Viewer online tool to calculate the similarity index. […] Data was acquired using the Cytek® Aurora, analyzed using Cytobank Premium software (Beckman Coulter)."}, "PitNET organoids": {"test_system": "PitNET organoids", "experiment": "ACTH secretion from PitNET (summary)", "description": "as §1, with “PitNET tissue derived organoids hPITO36, hPITO37, hPITO38, hPITO39, and hPITO40 were treated with the following experimental conditions: Vehicle (1), pasireotide (2), relacorilant (3), relacorilant & pasireotide (4), mifepristone (5), mifepristone & pasireotide (6).” left out, “All organoid cultures were treated for 48 hours prior to analysis.” left out\nOrganoid conditioned media was collected and ACTH secretion using an ELISA according to the manufacturer's protocol (Novus Biologicals Human ACTH ELISA Kit NBP2-66401). The optical density was measured at a wavelength of 450 nm, and ACTH concentration (pg/mL) was interpolated using a standard curve with a 4-parameter logistic regression analysis using GraphPad Prism (v9.3.1)."}}, "note": "Entries after “also recorded” stand apart in the source; their conditions may differ.", "data": [{"smiles": "CC#C[C@]1(O)CC[C@H]2[C@@H]3CCC4=CC(=O)CCC4=C3[C@@H](c3ccc(N(C)C)cc3)C[C@@]21C", "note": "[mifepristone, 11β-(4-dimethylaminophenyl)-17ß-hydroxy-17α-(1-propynyl)-estra-4,9-dien-3-one]", "values": [{"measurement": "expression of SSTR5", "setting": "SSTR5; iPSC organoids, 48 h", "value": "significant induction; also recorded: significantly induced the expression"}, {"measurement": "differential expression of SSTR5", "setting": "SSTR5; iPSCctrl organoids, compound alone, 48 h, FIG. 5C, D", "value": "significantly induced"}, {"measurement": "magnitude of SSTR2 induction, mifepristone vs relacorilant", "setting": "SSTR2", "value": "significantly greater than that of relacorilant"}, {"measurement": "percentage of SSTR2 positive cells", "setting": "SSTR2", "value": "significant increase"}, {"measurement": "cell death (Zombie positive cells)", "setting": "iPSC^USP48MV organoids", "value": "not observed"}, {"measurement": "ACTH secretion from PitNET organoids", "setting": "PitNET organoids", "value": "preferentially induced the expression of SSTR2, ACTH secretion and PitNET organoid proliferation; also recorded: significantly increased ACTH secretion from PitNET both in vivo and in vitro"}]}, {"smiles": "Cn1cc(S(=O)(=O)N2CCC3=Cc4c(cnn4-c4ccc(F)cc4)C[C@]3(C(=O)c3cc(C(F)(F)F)ccn3)C2)cn1", "note": "[relacorilant, (R)-(1-(4-fluorophenyl)-6-((1-methyl-1H-pyrazol-4-yl)sulfonyl)-4,4a,5,6,7,8-hexahydro-1H-pyrazolo[3,4-g]isoquinolin-4a-yl) (4-(trifluoromethyl)pyridin-2-yl) methanone]", "values": [{"measurement": "SSTR5 induction relative to SSTR2", "setting": "SSTR5", "value": "predominantly induced SSTR5 expression; also recorded: greater induction of SSTR5 expression as compared to SSTR2"}, {"measurement": "SSTR5 induction relative to SSTR2", "setting": "SSTR5; listed as Relacorilant", "value": "predominantly induces SSTR5"}, {"measurement": "induction in SSTR5 expression, relacorilant compared to mifepristone", "setting": "SSTR5; iPSC organoids, 500 nM each, 48 h, FIG. 5B", "value": "induced greater SSTR5 expression"}, {"measurement": "expression of SSTR5", "setting": "SSTR5; iPSC organoids, 48 h", "value": "significant induction; also recorded: significantly induced the expression"}, {"measurement": "percentage of SSTR2 positive cells", "setting": "SSTR2", "value": "significant increase"}, {"measurement": "cell death (Zombie positive cells)", "setting": "iPSC^USP48MV organoids", "value": "significant increase in Zombie positive cells"}, {"measurement": "ACTH secretion from PitNET organoids", "setting": "PitNET organoids", "value": "without significant stimulation of ACTH secretion; also recorded: without an increase in ACTH secretion"}]}]}
